Experimental data as given in US20230292755A1, “USE OF A GLYCINE BETAINE DERIVATIVE AS A PEDICULICIDAL AGENT” (priority 2020, published 2023).

Test system: lice (Pediculus humanus capitis)
Assay: Efficacy test: aqueous solutions sprayed into boxes of lice, percentage of mortality evaluated (ECHA guidance)
Assay type: in vivo
Settings: sprayed aqueous solution at 3% by weight of dry matter; for Mortality rate (%): mean of 4 boxes of 25 lice
Experimental: The surfactant compositions prepared as described in examples 1 and 2 above were tested following the recommendations of the ECHA relating to the evaluation of the efficacy of biocidal products (Guidance on the Biocidal Products Regulation Volume II Efficacy—Assessment and Evaluation (Parts B+C), Version 3.0 April 2018).
These compositions were thus each sprayed, in the form of aqueous solutions at 3% by weight of dry matter, into 4 boxes each including 25 lice (Pediculus humanus capitis), then the percentage of mortality was evaluated after 5, 10 and 15 min. The mean of the results obtained in the 4 boxes was calculated.
The test presented in example 3 was reproduced using one and the same concentration of different cationic surfactants instead of the glycine betaine derivatives according to the invention.

Row | Compound | Mortality rate (%) (after 5 min) | Mortality rate (%) (after 10 min) | Mortality rate (%) (after 15 min) | time required to eliminate 100% of the lice [min]
1 | CCCCCCCCCCCCCCCC[N+](C)(C)C.[Cl-] [Cetrimonium chloride] | 79 | 94 | 100 | –
2 | CCCCCCCCCCCC[N+](C)(C)C.[Cl-] [Dodecyltrimethylammonium chloride] | 49 | 78 | 91 | 30
3 | Benzalkonium chloride | 70 | 80 | 82 | 60
